# In patent publication US11358972B2, “Pentacyclic heterocycles” (Eisai R&D Management Co., Ltd., priority 2019, dated 2022):
# Key:
# [1] = system: Rat primary septal neuron culture; assay: Measurement of acetylcholine (ACh) release in the rat primary septal neuron culture system; assay type: cell-based; conditions: 24 h, rat primary septal neurons, with NGF, ACh release measured by HPLC one day after compound addition, read-out: Concentration (μM) showing a 20% or more increase from the amount of ACh in the control group
# Excerpt: Measurement of Acetylcholine (ACh) Release in the Rat Primary Septal Neuron Culture System
# (1) Rat Primary Septal Neuron Culture
# The septal area was isolated from Sprague-Dawley (SD) rats (Charles River Laboratories Japan, Inc.) at a fetal age of 18 days, and cultured. Specifically, fetuses were removed from pregnant rats under isoflurane anesthesia. The brain was extracted from each fetus, and immersed in ice-cooled L-15 medium (11415-064, Thermo Fisher Scientific). The septal area was dissected from the extracted brain under a stereoscopic microscope. The dissected septal area was treated in 0.25% trypsin (15050-065, Thermo Fisher Scientific) and 0.01% DNase (D5025-150KU, Sigma) at 37° C. for 30 minutes, thereby dispersing the cells. In this case, the enzyme reaction was terminated by adding inactivated horse serum (26050-088, Thermo Fisher Scientific). The enzyme-treated solution was centrifuged at 1000 rpm for 3 minutes, and the supernatant was removed. A medium in an amount of 10 mL was added to the obtained cell mass. The medium used was Dulbecco's Modified Eagle's Medium (044-29765, WAKO) supplemented with N2 supplement (17502-048, Thermo Fisher Scientific), 1 mM sodium pyruvate (11360-070, Thermo Fisher Scientific), and Penicillin-Streptomycin (15140-1221, Thermo Fisher Scientific). The cells of the cell mass to which the medium was added were redispersed by gentle pipetting, and then centrifuged again at 1000 rpm for 3 minutes, and the supernatant was removed. The medium in an amount of 10 mL was added to the obtained cell mass, and the cell dispersion was filtered through a 40-μm nylon mesh (Cell Strainer) to remove the cell mass, thereby obtaining a neuronal cell suspension. The neuronal cell suspension was diluted with the medium, and 10% inactivated bovine serum (26140-079, Thermo Fisher Scientific) and 10% inactivated horse serum were added. Thereafter, 100 μL/well of the suspension was seeded in a 96-well plate (354461, CORNING) pre-coated with poly-D-lysine so that the initial culture density was 1.2×10^5 cells/cm^2. After the seeded cells were cultured under 5% CO2-95% air in a 37° C. incubator for 2 days, the entire medium was replaced with 120 μL of fresh medium, and the cells were subsequently cultured for 5 days.
# On the 7th day of culture, compounds were added in the following manner. A solution of the test compound in DMSO was diluted with the medium so that the concentration was 10 times higher than the final concentration. Nerve Growth Factor (450-01, PEPRO TECH, INC.) was prepared at […]. These two solutions were added each in an amount of 15 μL/well, and the mixture was mixed well. The final DMSO concentration was 0.1% or less. Moreover, only DMSO and NGF were added to the control group.
# (3) ACh Release Measurement
# One day after the compound addition, an amount of ACh release was measured by HPLC in the following manner. A warmed buffer was added at 100 μL/well to the well after the medium was eliminated, and the buffer was immediately removed. Thereafter, a buffer to which 10 μm choline, 10 μm physostigmine, and 6 mM KCl were added was added at 120 μL/well. The buffer was prepared by adding 125 mM NaCl, 25 mM 4-(2-hydroxyethyl)-1-piperazineethanesulfonic acid, 1.2 mM KH2PO4, 1.2 mM MgSO4, 2.2 mM CaCl2 (2H2O), and 10 mM glucose to sterilized water, and the final pH of the solution was set to 7.4. After the 96-well plate to which the buffer was added was incubated under 5% CO2-95% air in a 37° C. incubator for 40 minutes, 80 μL of buffer was collected. An internal standard solution IPHC (5×10^−7 M) was added in an amount of 6 μL to the collected buffer, and the buffer was transferred to a tube for HPLC measurement and subjected to HPLC measurement. […]
# [2] = system: Choline Acetyltransferase (ChAT) mRNA; assay: Measurement of choline acetyltransferase (ChAT) mRNA expression levels in the rat septal area; assay type: in vivo; conditions: po, SD male rats, medial septum, 24 hours after administration, read-out: Amount (%) increased from the amount of ChAT mRNA expression levels in the vehicle administration group; for change in vivo at 3 mg/kg: 3 mg/kg orally; for change in vivo at 1 mg/kg: 1 mg/kg orally
# Experimental: Measurement of Choline Acetyltransferase (ChAT) mRNA Expression Levels in the Rat Septal Area (1) Compound Administration
# In this study, Sprague-Dawley male rats (Charles River Laboratories Japan, Inc.) with a body weight of about 250 to 350 g were used. The test compound was dissolved in 0.01 mol/L hydrochloric acid, and orally administered.
# At 24 hours after the administration of the compound, the whole brain tissue was collected under pentobarbital anesthesia. The medial septum was isolated from whole brain on ice and frozen with liquid nitrogen, and then stored at −80° C.
# (3) Measurement of ChAT mRNA Expression Levels
# For RNA purification, RNeasy™ Plus Mini Kit (#74136: QIAGEN) was used in this study. RNA purification was performed by the method described in the kit After RNA purification, the total RNA concentration was measured by using QIAxpert Instrument (QIAGEN). cDNA was synthesized using SuperScript™ VILO™ cDNA Synthesis Kit (#11754: Thermo Fisher Scientific). The synthesis of cDNA was performed by the method described in the kit. The synthesized cDNA was diluted 4 times with RNase free water, and the diluted cDNA solution was used as a sample. Taqman™ Universal PCR Master Mix (#4304437: Thermo Fisher Scientific), Taqman™ Gene Expression Assays, INVENTORIED (#4331182: Thermo Fisher Scientific), RNase free water, and the cDNA solution were mixed in amounts of 10 μL, 1 μL, 4 μL, and 5 μL, respectively, and the resulting mixture was used as a measurement sample solution. Quantitative polymerase chain reaction (qPCR) was conducted using ABI PRISM™ 7900HT (Thermo Fisher Scientific) by a fluorescence probe method. Analysis was performed by SDS 2.4 (Thermo Fisher Scientific). The results were calculated by the percentage of the amount of ChAT mRNA expression levels in the compound administration group increased from the amount of ChAT mRNA expression levels in the vehicle administration group.
Structure (SMILES),minimal effective concentration [1] [µM],change in vivo at 3 mg/kg [2] [%],change in vivo at 10 mg/kg ([2]; 10 mg/kg orally) [%],change in vivo at 1 mg/kg [2] [%],change in vivo at 0.3 mg/kg ([2]; 0.3 mg/kg orally) [%]
COCCN1CCc2c(sc3nc4n(c(=O)c23)[C@@H]2CCC[C@@H]2C(=O)N(C)C4)C1 [Example 8],0.03,71.8,–,–,–
"CN1Cc2nc3c(oc4ccccc43)c(=O)n2[C@@H]2CCC[C@@H]2C1=O [Example 1, (3aS,14aR)-5-methyl-3,3a,5,6-tetrahydro-1H-benzofuro[3′,2′:4,5]pyrimido[1,2-a]cyclopenta[f][1,4]diazepine-4,13(2H,14aH)-dione]",0.03,–,76,–,–
"Cc1cc(C)c2c(n1)oc1c(=O)n3c(nc12)CN(C)C(=O)[C@H]1CCC[C@H]13 [Example 4, (3aS,14aR)-5,8,10-trimethyl-3,3a,5,6-tetrahydro-1H-cyclopenta[f]pyrido[3″,2″:4′,5′]furo[3′,2′:4,5]pyrimido[1,2-a][1,4]diazepine-4,13(2H,14aH)-dione]",0.1,–,–,51.5,–
CN1Cc2nc3c(oc4cc(C(F)(F)F)ccc43)c(=O)n2[C@@H]2CCC[C@H]2C1=O [Example 6],0.03,–,–,–,67.7
"CN1CCc2c(sc3nc4n(c(=O)c23)[C@H]2COC[C@H]2C(=O)N(C)C4)C1 [Example 11, (+)-(3a,14a-cis)-5,10-dimethyl-1,3,3a,5,6,9,10,11,12,14a-decahydrofuro[3,4-f]pyrido[4″,3″:4′,5′]thieno[2′,3′:4,5]pyrimido[1,2-a][1,4]diazepine-4,13-dione]",0.03,–,–,54.7,–
"CN1CCc2c(sc3nc4n(c(=O)c23)C(C)(C)CC(=O)N2CCCC42)C1 (single isomer, unassigned; (+)) [Example 2, (+)-7,7,12-trimethyl-1,2,3,6,7,10,11,12,13,15b-decahydropyrido[4″,3″:4′,5′]thieno[2′,3′:4,5]pyrimido[1,2-a]pyrrolo[2,1-c][1,4]diazepine-5,9-dione]",0.03,53.6,–,–,–
CN1Cc2nc3c(oc4cc(C(F)F)ccc43)c(=O)n2[C@@H]2CCC[C@@H]2C1=O [Example 9],0.03,112,–,–,–
"COCCN1CCc2c(sc3nc4n(c(=O)c23)[C@H]2CCC[C@@H]2C(=O)N(C)C4)C1 [Example 16, (3aS,4aS)-10-(2-methoxyethyl)-5-methyl-2,3,3a,5,6,9,10,11,12,14a-decahydro-1H-cyclopenta[f]pyrido[4″,3″:4′,5′]thieno[2′,3′:4,5]pyrimido[1,2-a][1,4]diazepine-4,13-dione]",0.03,42.5,–,–,–
"CN1CCc2sc3c(=O)n4c(nc3c2C1)CN(C)C(=O)[C@@H]1CCC[C@H]14 [Example 14, (3aR,14aR)-5,9-dimethyl-2,3,3a,5,6,8,9,10,11,14a-decahydro-1H-cyclopenta[f]pyrido[3″,4″:4′,5′]thieno[3′,2′:4,5]pyrimido[1,2-a][1,4]diazepine-4,13-dione]",0.03,–,–,63.6,–
"CN1Cc2nc3sc4c(c3c(=O)n2[C@@H]2CCC[C@@H]2C1=O)CCN(CC(F)F)C4 [Example 7, (3aS,14aR)-10-(2,2-difluoroethyl)-5-methyl-2,3,3a,5,6,9,10,11,12,14a-decahydro-1H-cyclopenta[f]pyrido[4″,3″:4′,5′]thieno[2′,3′:4,5]pyrimido[1,2-a][1,4]diazepine-4,13-dione]",0.3,76.6,–,–,–
"CN1Cc2nc3c(oc4ccccc43)c(=O)n2[C@@H]2CN(CCF)C[C@H]2C1=O (relative stereo) [Example 17, (−)-(3a,14a-trans)-2-(2-fluoroethyl)-5-methyl-2,3,3a,5,6,14a-hexahydro-1H-benzofuro[3′,2′:4,5]pyrimido[1,2-a]pyrrolo[3,4-f][1,4]diazepine-4,13-dione]",0.03,44.6,–,–,–
"COCCN1CCc2c(sc3nc4n(c(=O)c23)C(C)(C)CC(=O)N2CCCC42)C1 (single isomer, unassigned; (-)) [Example 13, (−)-12-(2-methoxyethyl)-7,7-dimethyl-1,2,3,6,7,10,11,12,13,15b-decahydro-5H,9H-pyrido[4″,3″:4′,5′]thieno[2′3′:4,5]pyrimido[1,2-a]pyrrolo[2,1-c][1,4]diazepine-5,9-dione]",0.03,–,–,59.7,–
"CN1Cc2nc3c(oc4cc(C(F)(F)F)ccc43)c(=O)n2[C@H]2CCC[C@@H]2C1=O [Example 12, (3aS,14aS)-5-methyl-10-(trifluoromethyl)-2,3,3a,5,6,14a-hexahydro-1H-benzofuro[3′,2′:4,5]pyrimido[1,2-a]cyclopenta[f][1,4]diazepine-4,13-dione]",0.03,–,–,44.7,–
"CN1Cc2nc3c(oc4cc(F)ccc43)c(=O)n2[C@@H]2CCC[C@@H]2C1=O [Example 3, (3aS,14aR)-10-fluoro-5-methyl-3,3a,5,6-tetrahydro-1H-benzofuro[3′,2′:4,5]pyrimido[1,2-a]cyclopenta[f][1,4]diazepine-4,13(2H,14aH)-dione]",0.03,–,–,53.7,–
"CN1C[C@H]2C(=O)N(C)Cc3nc4sc5c(c4c(=O)n3[C@H]2C1)CC[C@@H](F)C5 [Example 15, (3aR,10R,14aR)-10-fluoro-2,5-dimethyl-2,3,3a,5,6,9,10,11,12,14a-decahydro-1H-benzo[4′,5′]thieno[2′,3′:4,5]pyrimido[1,2-a]pyrrolo[3,4-f][1,4]diazepine-4,13-dione]",0.3,–,–,49,–
